Tests used:
[1] = target: Bromodomain-containing protein 4 (Homo sapiens, UniProt O60885); test: Binding affinity to BRD4 bromodomain 2 (E352 to M457 amino acids) (unknown origin) using Alexa647-labeled BET-inhibitor as fluorescent probe by bromodomain TR-FRET binding assay
[2] = target: T1, Bromodomain-containing protein 1 (Homo sapiens) (UniProt O95696); test: Binding affinity to human BRD1 expressed in bacterial system assessed as remaining binding level at 1 uM by BROMOscan assay relative to control
T1 sequence (whole entry): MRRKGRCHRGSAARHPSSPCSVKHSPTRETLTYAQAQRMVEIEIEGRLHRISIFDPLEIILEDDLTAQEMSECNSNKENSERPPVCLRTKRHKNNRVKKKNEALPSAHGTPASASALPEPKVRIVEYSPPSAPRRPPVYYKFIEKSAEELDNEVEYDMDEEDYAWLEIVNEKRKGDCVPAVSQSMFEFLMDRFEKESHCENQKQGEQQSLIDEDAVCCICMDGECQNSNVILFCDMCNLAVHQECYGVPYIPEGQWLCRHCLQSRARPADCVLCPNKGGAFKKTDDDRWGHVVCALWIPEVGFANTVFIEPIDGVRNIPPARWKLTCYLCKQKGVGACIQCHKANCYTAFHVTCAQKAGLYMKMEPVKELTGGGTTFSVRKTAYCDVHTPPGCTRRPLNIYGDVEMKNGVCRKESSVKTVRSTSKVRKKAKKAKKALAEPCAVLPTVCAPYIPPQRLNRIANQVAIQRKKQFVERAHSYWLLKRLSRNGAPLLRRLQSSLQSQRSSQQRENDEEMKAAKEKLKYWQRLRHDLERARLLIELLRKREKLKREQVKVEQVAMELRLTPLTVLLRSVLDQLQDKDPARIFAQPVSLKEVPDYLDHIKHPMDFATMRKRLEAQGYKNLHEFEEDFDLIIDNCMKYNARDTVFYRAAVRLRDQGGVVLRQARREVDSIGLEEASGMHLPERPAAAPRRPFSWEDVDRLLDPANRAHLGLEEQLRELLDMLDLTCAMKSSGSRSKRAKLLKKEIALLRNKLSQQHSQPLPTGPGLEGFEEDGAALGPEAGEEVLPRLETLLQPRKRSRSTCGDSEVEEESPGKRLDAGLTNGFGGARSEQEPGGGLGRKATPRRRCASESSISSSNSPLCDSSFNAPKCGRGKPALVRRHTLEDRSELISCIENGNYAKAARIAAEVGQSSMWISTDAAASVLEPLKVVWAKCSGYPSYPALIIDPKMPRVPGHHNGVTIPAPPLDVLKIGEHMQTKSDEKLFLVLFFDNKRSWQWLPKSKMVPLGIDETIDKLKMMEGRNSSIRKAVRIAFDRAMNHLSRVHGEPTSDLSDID

Peregrin (Homo sapiens) = target: T2, Peregrin (Homo sapiens) (UniProt P55201); test: Binding affinity to human BRPF1 expressed in bacterial system assessed as remaining binding level at 1 uM by BROMOscan assay relative to control
T2 sequence (whole entry): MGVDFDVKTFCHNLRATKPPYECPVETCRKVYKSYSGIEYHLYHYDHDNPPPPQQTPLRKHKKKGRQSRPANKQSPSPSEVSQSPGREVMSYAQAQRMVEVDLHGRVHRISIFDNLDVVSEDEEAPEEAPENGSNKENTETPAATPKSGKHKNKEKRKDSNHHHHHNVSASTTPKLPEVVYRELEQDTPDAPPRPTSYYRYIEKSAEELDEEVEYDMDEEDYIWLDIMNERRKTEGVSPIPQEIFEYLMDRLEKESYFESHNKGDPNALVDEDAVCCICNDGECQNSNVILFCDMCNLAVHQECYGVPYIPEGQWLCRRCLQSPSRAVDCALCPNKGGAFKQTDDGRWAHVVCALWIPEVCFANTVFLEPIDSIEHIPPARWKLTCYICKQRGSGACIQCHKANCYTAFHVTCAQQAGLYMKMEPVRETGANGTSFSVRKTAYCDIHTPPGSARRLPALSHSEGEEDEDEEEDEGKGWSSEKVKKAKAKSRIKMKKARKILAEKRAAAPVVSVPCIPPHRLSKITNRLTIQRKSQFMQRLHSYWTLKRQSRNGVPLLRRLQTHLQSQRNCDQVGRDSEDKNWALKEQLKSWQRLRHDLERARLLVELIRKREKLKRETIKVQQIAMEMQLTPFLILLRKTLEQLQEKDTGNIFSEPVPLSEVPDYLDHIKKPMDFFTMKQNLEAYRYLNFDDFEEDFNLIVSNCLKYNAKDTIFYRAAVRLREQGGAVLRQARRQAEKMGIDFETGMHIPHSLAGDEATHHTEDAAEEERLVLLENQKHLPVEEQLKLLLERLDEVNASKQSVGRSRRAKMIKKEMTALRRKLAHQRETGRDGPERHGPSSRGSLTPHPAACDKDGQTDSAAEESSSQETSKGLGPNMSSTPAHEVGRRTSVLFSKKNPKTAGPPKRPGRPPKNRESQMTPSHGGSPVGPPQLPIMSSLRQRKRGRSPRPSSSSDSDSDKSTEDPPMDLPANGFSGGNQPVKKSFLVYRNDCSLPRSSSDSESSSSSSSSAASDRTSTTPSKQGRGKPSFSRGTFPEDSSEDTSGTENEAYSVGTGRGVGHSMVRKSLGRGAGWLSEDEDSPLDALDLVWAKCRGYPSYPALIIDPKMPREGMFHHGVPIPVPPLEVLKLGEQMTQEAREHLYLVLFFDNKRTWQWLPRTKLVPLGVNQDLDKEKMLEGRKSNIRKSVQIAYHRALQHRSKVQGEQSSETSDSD

[3] = target: SWI/SNF-related matrix-associated actin-dependent regulator of chromatin subfamily A member 4 (Homo sapiens) (UniProt P51532); test: Binding affinity to human SMARCA4 expressed in bacterial system assessed as remaining binding level at 1 uM by BROMOscan assay relative to control
Sequence of SWI/SNF-related matrix-associated actin-dependent regulator of chromatin subfamily A member 4 (Homo sapiens) (P51532 whole entry): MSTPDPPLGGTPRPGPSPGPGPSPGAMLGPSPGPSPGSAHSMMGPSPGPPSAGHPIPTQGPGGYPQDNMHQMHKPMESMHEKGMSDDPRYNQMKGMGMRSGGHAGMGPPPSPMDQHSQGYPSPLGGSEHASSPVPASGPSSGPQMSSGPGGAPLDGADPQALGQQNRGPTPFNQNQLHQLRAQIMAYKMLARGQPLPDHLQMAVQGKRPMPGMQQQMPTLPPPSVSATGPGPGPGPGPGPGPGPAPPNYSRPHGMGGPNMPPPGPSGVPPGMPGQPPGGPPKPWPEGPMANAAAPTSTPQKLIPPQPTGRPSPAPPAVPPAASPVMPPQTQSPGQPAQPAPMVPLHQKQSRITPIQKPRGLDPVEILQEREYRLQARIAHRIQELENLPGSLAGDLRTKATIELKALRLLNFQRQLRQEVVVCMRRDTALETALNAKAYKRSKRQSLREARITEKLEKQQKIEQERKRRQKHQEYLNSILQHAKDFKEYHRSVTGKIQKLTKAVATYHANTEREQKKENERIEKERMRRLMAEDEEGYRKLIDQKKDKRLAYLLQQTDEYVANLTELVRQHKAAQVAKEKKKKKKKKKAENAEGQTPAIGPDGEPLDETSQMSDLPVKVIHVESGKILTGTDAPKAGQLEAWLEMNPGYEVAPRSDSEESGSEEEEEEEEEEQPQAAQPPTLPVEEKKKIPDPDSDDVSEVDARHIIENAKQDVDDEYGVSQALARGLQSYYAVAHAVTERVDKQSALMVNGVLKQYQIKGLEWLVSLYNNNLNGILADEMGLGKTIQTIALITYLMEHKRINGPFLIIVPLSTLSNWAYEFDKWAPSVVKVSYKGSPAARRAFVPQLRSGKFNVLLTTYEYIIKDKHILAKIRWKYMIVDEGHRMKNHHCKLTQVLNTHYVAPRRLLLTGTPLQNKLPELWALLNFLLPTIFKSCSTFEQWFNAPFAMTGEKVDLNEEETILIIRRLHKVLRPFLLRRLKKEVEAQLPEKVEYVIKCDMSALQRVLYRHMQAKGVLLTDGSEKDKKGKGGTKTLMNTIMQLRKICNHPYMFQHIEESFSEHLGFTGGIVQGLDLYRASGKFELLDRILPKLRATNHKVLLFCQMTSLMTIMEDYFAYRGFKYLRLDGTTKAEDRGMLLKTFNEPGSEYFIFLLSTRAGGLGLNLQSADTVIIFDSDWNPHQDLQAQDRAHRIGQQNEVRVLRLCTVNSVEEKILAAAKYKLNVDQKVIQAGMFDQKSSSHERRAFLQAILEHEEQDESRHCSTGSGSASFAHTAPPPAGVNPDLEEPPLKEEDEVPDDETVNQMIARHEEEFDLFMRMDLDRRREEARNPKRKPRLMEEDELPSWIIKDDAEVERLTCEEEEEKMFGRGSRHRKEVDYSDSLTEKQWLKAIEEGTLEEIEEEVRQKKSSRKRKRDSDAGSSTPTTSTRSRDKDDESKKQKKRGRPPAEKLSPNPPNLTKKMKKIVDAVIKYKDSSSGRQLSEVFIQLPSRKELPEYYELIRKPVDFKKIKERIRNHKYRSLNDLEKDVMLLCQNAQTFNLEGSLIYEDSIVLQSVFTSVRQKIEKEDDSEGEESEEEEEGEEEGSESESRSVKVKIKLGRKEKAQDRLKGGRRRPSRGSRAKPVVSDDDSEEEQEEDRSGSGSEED

Ki [1] [nM]	Activity [2] [%]	Activity (Peregrin (Homo sapiens)) [%]	Activity [3] [%]	SMILES
2.5	98	69	86	Cn1cc2c3c(c[nH]c(=O)c31)-c1cc(CS(C)(=O)=O)ccc1N(c1ccc(F)cc1)C2
0.73	87	14	90	Cn1cc2c3c(c[nH]c3c1=O)CN(c1ccc(F)cc1F)c1ccc(CS(C)(=O)=O)cc1-2
1.5	84	1.2	56	Cn1cc2c3c(c[nH]c3c1=O)CN(c1ccccn1)c1ccc(CS(C)(=O)=O)cc1-2
